Assay results reported in patent publication US20030158184A1, “Nitrosated and nitrosylated phosphodiesterase inhibitor compounds, compositions and their uses” (priority 2001, published 2003).

Test system: human corpus cavernosum tissue
Details: doses of 10 μM and 30 μM; compared with equimolar dose of dipyridamole; tissue contracted with phenylephrine 7×10^−7 M; 0% = phenylephrine contraction, −100% = tone after papaverine 10^−4 M; FIG. 40
Method: The tissue was maintained in a chilled Krebs-bicarbonate solution prior to assay. The tissue was cut into strips of 0.3×0.3×1 cm and suspended in organ chambers for isometric tension measurement. Tissues were incrementally stretched until optimal isometric tension for contraction was obtained. […] At the end of the experiment papaverine (10^−4 M) is added to obtain maximal relaxation. […] Data are expressed as the percent loss in tone from the phenylephrine-induced contraction (0% =phenylephrine contraction; −100%=tone after the administration of papaverine).

In the case of `CC(C)(CC(=O)OCCN(CCOC(=O)CC(C)(C)SN=O)c1nc(N2CCCCC2)c2nc(N(CCOC(=O)CC(C)(C)SN=O)CCOC(=O)CC(C)(C)SN=O)nc(N3CCCCC3)c2n1)SN=O` [Example 1, 2.6-bis(diethyl(3-methyl-3(nitrosothiol)butyric acid ester)amino)-4.8-dipipendinopyrimido-[5,4d]-pyrimidine], the “relaxation of the phenylephrine-induced contraction (percent loss in tone from the phenylephrine-induced contraction)” value is reported as “more efficacious”.
